Measurements as given in patent US7192906B2, “Substituted pyrazole derivatives, production process thereof, and herbicide compositions containing the derivatives” (SDS Biotech K.K., priority 2001, dated 2007).

Assays:
Type in all cases: in vivo
Stellaria media [1] = assay: Test Example 2 upland soil treatment; details: Table 5, upland soil treatment, index 0-5
Outline: (§1)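 Visual 0–5 grading of herbicidal effect or phytotoxicity, made 21 days after a single pre-emergence soil-surface application at 1 kg a.i./ha.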

Chenopodium album [2] = assay: Test Example 2 upland soil treatment; details: Table 5, upland soil treatment, index 0-5
Outline: as §1

Setaria viridis [3] = assay: Test Example 2 upland soil treatment; details: Table 5, upland soil treatment, index 0-5
Outline: as §1

Digitaria adscendens [4] = assay: Test Example 2 upland soil treatment; details: Table 5, upland soil treatment, index 0-5
Outline: as §1

[5] = tested on: wheat (Triticum aestivum); assay: Test Example 2 upland soil treatment, crop phytotoxicity; details: Table 5, upland soil treatment, index 0-5
Outline: as §1

soybean (Glycine max) [6] = assay: as above; details: Table 5, upland soil treatment, index 0-5
Outline: as §1

Scirpus juncoides = assay: Test Example 3 paddy field treatment; details: Table 6, paddy field treatment, active ingredient 1 kg per hectare, 21st day after dropping, index 0-5
Outline: (§2)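 Weed seeds sown in puddled paddy soil under 4 cm water, with two-leaf Koshihikari rice transplanted; 10 days later a wettable powder was applied to the water surface at 1 kg active ingredient/ha. Scored 21 days after application on a 0–5 scale (0 = <10%, 5 = ≥90% herbicidal effect or phytotoxicity).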

Monochoria vaginalis = assay: Test Example 3 paddy field treatment; details: Table 6, paddy field treatment, active ingredient 1 kg per hectare, 21st day after dropping, index 0-5
Outline: as §2

Ammannia multiflora = assay: Test Example 3 paddy field treatment; details: Table 6, paddy field treatment, active ingredient 1 kg per hectare, 21st day after dropping, index 0-5
Outline: as §2

Echinochloa crusgalli = assay: Test Example 3 paddy field treatment; details: Table 6, paddy field treatment, active ingredient 1 kg per hectare, 21st day after dropping, index 0-5
Outline: as §2

Stellaria media [7] = assay: Test Example 1 upland field foliage treatment; details: Table 4, upland field foliage treatment, index 0-5
Outline: (§3)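 Scores are visual 0–5 ratings of herbicidal effect or crop injury (0: under 10%; 5: 90% or more) taken 21 days after treatment. Plants grew from seed in upland soil for 14 days, then foliage received the compound as a water-diluted wettable powder at 1 kg/ha active ingredient.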

Chenopodium album [8] = assay: Test Example 1 upland field foliage treatment; details: Table 4, upland field foliage treatment, index 0-5
Outline: as §3

Setaria viridis [9] = assay: Test Example 1 upland field foliage treatment; details: Table 4, upland field foliage treatment, index 0-5
Outline: as §3

Digitaria adscendens [10] = assay: Test Example 1 upland field foliage treatment; details: Table 4, upland field foliage treatment, index 0-5
Outline: as §3

Rice (Oryza sativa) = assay: Test Example 3 paddy field treatment, crop phytotoxicity; details: Table 6, paddy field treatment, transplanted rice, active ingredient 1 kg per hectare, 21st day after dropping, index 0-5
Outline: as §2

[11] = tested on: wheat (Triticum aestivum); assay: Test Example 1 upland field foliage treatment, crop phytotoxicity; details: Table 4, upland field foliage treatment, index 0-5
Outline: as §3

soybean (Glycine max) [12] = assay: as above; details: Table 4, upland field foliage treatment, index 0-5
Outline: as §3

SMILES | Herbicidal activity SM: Stellaria media (Stellaria media [1]) | Herbicidal activity CA: Chenopodium album (Chenopodium album [2]) | Herbicidal activity SV: Setaria viridis (Setaria viridis [3]) | Herbicidal activity DA: Digitaria adscendens (Digitaria adscendens [4]) | Herbicidal activity (phytotoxicity) TA: Wheat (Triticum aestivum) [5] | Herbicidal activity (phytotoxicity) GM: Soybean (Glycine max) (soybean (Glycine max) [6]) | Herbicidal activity SJ (Scirpus juncoides) | Herbicidal activity MV (Monochoria vaginalis) | Herbicidal activity AM (Ammannia multiflora) | Herbicidal activity EC (Echinochloa crusgalli) | Herbicidal activity SM: Stellaria media (Stellaria media [7]) | Herbicidal activity CA: Chenopodium album (Chenopodium album [8]) | Herbicidal activity SV: Setaria viridis (Setaria viridis [9]) | Herbicidal activity DA: Digitaria adscendens (Digitaria adscendens [10]) | Herbicidal activity (phytotoxicity) OS (Rice (Oryza sativa)) | Herbicidal activity (phytotoxicity) TA: Wheat (Triticum aestivum) [11] | Herbicidal activity (phytotoxicity) GM: Soybean (Glycine max) (soybean (Glycine max) [12])
C=CCON=C(Cn1cc(C)c(-c2ccccc2)n1)C(=O)NC [Compound 105] | 4 (herbicidal effect of not less than 70% and less than 90%, or phytotoxicity of 70% or more and less than 90%) | 4 (herbicidal effect of not less than 70% and less than 90%, or phytotoxicity of 70% or more and less than 90%) | 4 (herbicidal effect of not less than 70% and less than 90%, or phytotoxicity of 70% or more and less than 90%) | 4 (herbicidal effect of not less than 70% and less than 90%, or phytotoxicity of 70% or more and less than 90%) | 0 (herbicidal effect of not less than 0% and less than 10%, or phytotoxicity of 0% or more and less than 10%) | 0 (herbicidal effect of not less than 0% and less than 10%, or phytotoxicity of 0% or more and less than 10%) | 4 (herbicidal effect of not less than 70% and less than 90%, or phytotoxicity of 70% or more and less than 90%) | 5 (herbicidal effect of not less than 90%, or phytotoxicity of 90% or more) | 5 (herbicidal effect of not less than 90%, or phytotoxicity of 90% or more) | 4 (herbicidal effect of not less than 70% and less than 90%, or phytotoxicity of 70% or more and less than 90%) | 5 (herbicidal effect of not less than 90%, or phytotoxicity of 90% or more) | 5 (herbicidal effect of not less than 90%, or phytotoxicity of 90% or more) | 5 (herbicidal effect of not less than 90%, or phytotoxicity of 90% or more) | 5 (herbicidal effect of not less than 90%, or phytotoxicity of 90% or more) | 0 (herbicidal effect of not less than 0% and less than 10%, or phytotoxicity of 0% or more and less than 10%) | 0 (herbicidal effect of not less than 0% and less than 10%, or phytotoxicity of 0% or more and less than 10%) | 0 (herbicidal effect of not less than 0% and less than 10%, or phytotoxicity of 0% or more and less than 10%)
CNC(=O)C(Cn1cc(C)c(-c2ccc(C=NOC)cc2)n1)=NOC [Compound 111] | 5 (herbicidal effect of not less than 90%, or phytotoxicity of 90% or more) | 5 (herbicidal effect of not less than 90%, or phytotoxicity of 90% or more) | 4 (herbicidal effect of not less than 70% and less than 90%, or phytotoxicity of 70% or more and less than 90%) | 4 (herbicidal effect of not less than 70% and less than 90%, or phytotoxicity of 70% or more and less than 90%) | 0 (herbicidal effect of not less than 0% and less than 10%, or phytotoxicity of 0% or more and less than 10%) | 0 (herbicidal effect of not less than 0% and less than 10%, or phytotoxicity of 0% or more and less than 10%) | 5 (herbicidal effect of not less than 90%, or phytotoxicity of 90% or more) | 5 (herbicidal effect of not less than 90%, or phytotoxicity of 90% or more) | 5 (herbicidal effect of not less than 90%, or phytotoxicity of 90% or more) | 5 (herbicidal effect of not less than 90%, or phytotoxicity of 90% or more) | 5 (herbicidal effect of not less than 90%, or phytotoxicity of 90% or more) | 5 (herbicidal effect of not less than 90%, or phytotoxicity of 90% or more) | 4 (herbicidal effect of not less than 70% and less than 90%, or phytotoxicity of 70% or more and less than 90%) | 4 (herbicidal effect of not less than 70% and less than 90%, or phytotoxicity of 70% or more and less than 90%) | 0 (herbicidal effect of not less than 0% and less than 10%, or phytotoxicity of 0% or more and less than 10%) | 0 (herbicidal effect of not less than 0% and less than 10%, or phytotoxicity of 0% or more and less than 10%) | 0 (herbicidal effect of not less than 0% and less than 10%, or phytotoxicity of 0% or more and less than 10%)
CON=C(Cn1cc(C)c(-c2ccccc2)n1)C(=O)N1CCCC1 [Compound 118] | 4 (herbicidal effect of not less than 70% and less than 90%, or phytotoxicity of 70% or more and less than 90%) | 4 (herbicidal effect of not less than 70% and less than 90%, or phytotoxicity of 70% or more and less than 90%) | 3 (herbicidal effect of not less than 50% and less than 70%, or phytotoxicity of 50% or more and less than 70%) | 3 (herbicidal effect of not less than 50% and less than 70%, or phytotoxicity of 50% or more and less than 70%) | 0 (herbicidal effect of not less than 0% and less than 10%, or phytotoxicity of 0% or more and less than 10%) | 0 (herbicidal effect of not less than 0% and less than 10%, or phytotoxicity of 0% or more and less than 10%) | 4 (herbicidal effect of not less than 70% and less than 90%, or phytotoxicity of 70% or more and less than 90%) | 4 (herbicidal effect of not less than 70% and less than 90%, or phytotoxicity of 70% or more and less than 90%) | 4 (herbicidal effect of not less than 70% and less than 90%, or phytotoxicity of 70% or more and less than 90%) | 3 (herbicidal effect of not less than 50% and less than 70%, or phytotoxicity of 50% or more and less than 70%) | 5 (herbicidal effect of not less than 90%, or phytotoxicity of 90% or more) | 4 (herbicidal effect of not less than 70% and less than 90%, or phytotoxicity of 70% or more and less than 90%) | 3 (herbicidal effect of not less than 50% and less than 70%, or phytotoxicity of 50% or more and less than 70%) | 4 (herbicidal effect of not less than 70% and less than 90%, or phytotoxicity of 70% or more and less than 90%) | 0 (herbicidal effect of not less than 0% and less than 10%, or phytotoxicity of 0% or more and less than 10%) | 0 (herbicidal effect of not less than 0% and less than 10%, or phytotoxicity of 0% or more and less than 10%) | 0 (herbicidal effect of not less than 0% and less than 10%, or phytotoxicity of 0% or more and less than 10%)
